Among the data in US20240317744A1, “Bicyclic Ureas As Kinase Inhibitors” (Incyte Corporation, priority 2023, published 2024) are IC50 values, retold here.

Assay [1] has as its target T1, pseudo-kinase domain (JH2, amino-acids 536-812) of human Wild Type JAK2 (Homo sapiens, UniProt O60674, F794H/W659A/W777A).
T1 construct: pseudo-kinase domain (JH2, amino-acids 536-812 with 3 surface mutations W659A, W777A, F794H); His (C); purchased BPS Bioscience 79463; host or cells: baculovirus expression system
Put plainly: JAK2 LanthaScreen JH2-WT Binding Assay. The conditions noted are these: JAK2 JH2-WT 0.145 nM, 50 nM tracer, 1 hour at 25° C.; read-out: JH2 BIND WT. In short, it runs like this: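 Biotinylated C-terminal His-Avi-tagged JH2 (residues 536-812, baculovirus-expressed) at 0.145 nM was incubated with serially diluted compounds, 50 nM fluorescent JAK2-JH2 tracer and 0.25 nM streptavidin-Tb cryptate in pH 7.5 Tris buffer with MgCl2, Brij-35, BSA, EGTA, glycerol and DTT. LanthaScreen TR-FRET was read after 1 hour at 25° C; IC50 came from four-parameter fits.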

The target of assay [2] is catalytic domain (JH1, amino acids 808-1132) of human JAK2 (Homo sapiens, UniProt O60674). Put plainly: JAK2 HTRF Enzyme Activity Assay. The class given is biochemical. The note with it: ATP 30 µM, 60 minutes at 25° C.; read-out: V617F ENZ 30 UM.
Assay [3] addresses T2, catalytic domain (JH1, amino acids 826-1132) of human JAK2 (Homo sapiens, UniProt O60674).
T2 construct: catalytic domain (JH1, amino acids 826-1132) of human JAK2; FLAG (N); biotin (biotinylated); purchased Carna Biosciences 08-445-20N; host or cells: baculovirus expression system
Put plainly: JAK2 LanthaScreen JH1 Binding Assay. The note with it: JAK2 JH1 1.5 nM, 50 nM tracer, 2 hours at 25° C.; read-out: JH1 BIND. In short, it runs like this: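 FLAG-tagged, biotinylated JAK2 JH1 (aa 826-1132, baculovirus-expressed; 1.5 nM) incubated 2 h at 25° C with compounds, 50 nM fluorescent tracer and 0.5 nM Streptavidin-Tb in Tris pH 7.5 buffer with MgCl2, Brij-35, BSA, EGTA, glycerol, DTT. Nonspecific binding defined with 2 mM ATP; TR-FRET IC50 from four-parameter fit.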

Assay [4] deals with T3, pseudo-kinase domain (JH2, amino-acids 536-812) of human V617F mutant JAK2 (Homo sapiens, UniProt O60674, F794H/V617F/W659A/W777A).
T3 construct: pseudo-kinase domain (JH2, amino-acids 536-812 with 3 surface mutations W659A, W777A, F794H); His (C); purchased BPS Bioscience 79498; host or cells: baculovirus expression system
Put plainly: JAK2 LanthaScreen JH2-V617F Binding Assay. The note with it: JAK2 JH2-V617F 0.26 nM, 50 nM tracer, 1 hour at 25° C.; read-out: JH2 BIND V617F. The method in brief: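 Biotinylated His-Avi-tagged JH2 protein was baculovirus-expressed and used at 0.26 nM. It was incubated with compound, 50 nM fluorescent JH2 tracer and 0.25 nM streptavidin-Tb for 1 h at 25 °C in pH 7.5 Tris buffer with MgCl2, BSA, DTT. Non-specific binding was defined with 2 mM ATP. IC50 came from four-parameter fits of TR-FRET signal.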

T3 sequence (O60674 536-812 V617F/W659A/W777A/F794H): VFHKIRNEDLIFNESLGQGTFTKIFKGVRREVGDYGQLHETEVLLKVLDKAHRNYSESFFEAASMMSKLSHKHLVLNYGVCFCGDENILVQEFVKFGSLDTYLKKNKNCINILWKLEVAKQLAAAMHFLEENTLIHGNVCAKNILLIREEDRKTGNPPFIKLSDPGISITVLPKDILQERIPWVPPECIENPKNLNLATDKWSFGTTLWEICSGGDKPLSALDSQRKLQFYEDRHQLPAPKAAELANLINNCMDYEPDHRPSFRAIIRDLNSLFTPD
Chain of catalytic domain (JH1, amino acids 808-1132) of human JAK2 (O60674 808-1132 limits assumed): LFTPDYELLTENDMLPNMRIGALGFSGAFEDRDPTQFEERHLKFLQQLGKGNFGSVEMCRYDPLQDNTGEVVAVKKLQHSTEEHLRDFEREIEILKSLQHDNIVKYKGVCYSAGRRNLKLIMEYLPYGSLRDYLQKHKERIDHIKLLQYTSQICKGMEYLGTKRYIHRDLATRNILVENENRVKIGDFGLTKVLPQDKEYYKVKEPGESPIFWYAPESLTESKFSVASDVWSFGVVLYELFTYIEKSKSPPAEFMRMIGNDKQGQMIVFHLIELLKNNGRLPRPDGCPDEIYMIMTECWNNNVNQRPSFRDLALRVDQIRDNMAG
T1 sequence (O60674 536-812 W659A/W777A/F794H): as the sequence (O60674 536-812 V617F/W659A/W777A/F794H) above, with F82V counted along it
T2 sequence (O60674 826-1132): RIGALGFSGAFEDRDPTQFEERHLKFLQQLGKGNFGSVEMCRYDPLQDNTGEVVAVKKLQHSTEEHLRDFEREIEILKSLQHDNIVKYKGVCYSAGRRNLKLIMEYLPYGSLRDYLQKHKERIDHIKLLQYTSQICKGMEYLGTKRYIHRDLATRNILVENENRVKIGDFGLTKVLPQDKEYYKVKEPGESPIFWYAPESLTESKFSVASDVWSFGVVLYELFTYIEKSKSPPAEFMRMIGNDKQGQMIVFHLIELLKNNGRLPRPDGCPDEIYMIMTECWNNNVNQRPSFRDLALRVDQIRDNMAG

On to `[2H]C([2H])([2H])n1c(=O)n([C@@H]2CC[C@@H](NC(=O)OC)C2)c2cc(Nc3cc(C(=O)N4CCN5CCCCC5C4)cc(-c4ccc5c(c4)OCCO5)n3)ncc21` (stereo partly drawn) [Example 76, Methyl ((1R,3R)-3-(6-((6-(2,3-dihydrobenzo[b][1,4]dioxin-6-yl)-4-(octahydro-2H-pyrido[1,2-a]pyrazine-2-carbonyl)pyridin-2-yl)amino)-3-(methyl-d3)-2-oxo-2,3-dihydro-1H-imidazo[4,5-c]pyridin-1-yl)cyclopentyl)carbamate], for which the IC50 was ≤ 10 nM in assay [1], > 1000 nM in assay [2], > 1000 nM in assay [3] and ≤ 10 nM in assay [4].

`COC(=O)N[C@@H]1CC[C@@H](n2c(=O)n(C)c3cnc(Nc4ccnc(N5CCC6(CC6)C5)n4)cc32)C1` [Example 77, Methyl ((1R,3R)-3-(6-((2-(5-azaspiro[2.4]heptan-5-yl)pyrimidin-4-yl)amino)-3-methyl-2-oxo-2,3-dihydro-1H-imidazo[4,5-c]pyridin-1-yl)cyclopentyl)carbamate]: the IC50 in assay [1] was ≤ 10 nM; in assay [2] it was > 1000 nM; in assay [3] it was > 1000 nM; in assay [4] it was ≤ 10 nM.

With `COC(=O)N[C@@H]1CC[C@@H](n2c(=O)n(C)c3cnc(Nc4ccnc(N5CCC(F)(F)C5)n4)cc32)C1` [Example 78, Methyl ((1R,3R)-3-(6-((2-(3,3-difluoropyrrolidin-1-yl)pyrimidin-4-yl)amino)-3-methyl-2-oxo-2,3-dihydro-1H-imidazo[4,5-c]pyridin-1-yl)cyclopentyl)carbamate], the IC50 in assay [1] was ≤ 10 nM; in assay [2], > 1000 nM; in assay [3] it was > 1000 nM; in assay [4], ≤ 10 nM.

Turning to `COC(=O)N[C@@H]1CC[C@@H](n2c(=O)n(C)c3cnc(Nc4ccnc(N5CCC(C(F)(F)F)CC5)n4)cc32)C1` [Example 79, Methyl ((1R,3R)-3-(3-methyl-2-oxo-6-((2-(4-(trifluoromethyl)piperidin-1-yl)pyrimidin-4-yl)amino)-2,3-dihydro-1H-imidazo[4,5-c]pyridin-1-yl)cyclopentyl)carbamate], the IC50 is ≤ 10 nM in assay [1], > 1000 nM in assay [2], > 1000 nM in assay [3] and ≤ 10 nM in assay [4].

For the molecule `[2H]C([2H])([2H])n1c(=O)n([C@@H]2CC[C@@H](NC(=O)OC)C2)c2cc(Nc3cc(C(=O)N4CC[C@@H](F)C4)cc(-c4ccc5c(c4)OCCO5)n3)ncc21` [Example 80, Methyl ((1R,3R)-3-(6-((6-(2,3-dihydrobenzo[b][1,4]dioxin-6-yl)-4-((R)-3-fluoropyrrolidine-1-carbonyl)pyridin-2-yl)amino)-3-(methyl-d3)-2-oxo-2,3-dihydro-1H-imidazo[4,5-c]pyridin-1-yl)cyclopentyl)carbamate], the IC50 in assay [1] was ≤ 10 nM; in assay [2], > 1000 nM; in assay [3], > 1000 nM; in assay [4] it was ≤ 10 nM.

With `COC(=O)N[C@@H]1CC[C@@H](n2c(=O)n(C)c3cnc(Nc4ccn(-c5ccncc5)n4)cc32)C1` [Example 81, Methyl ((1R,3R)-3-(3-methyl-2-oxo-6-((1-(pyridin-4-yl)-1H-pyrazol-3-yl)amino)-2,3-dihydro-1H-imidazo[4,5-c]pyridin-1-yl)cyclopentyl)carbamate], the IC50 was 100 to 500 nM in assay [1], > 1000 nM in assay [2], > 1000 nM in assay [3] and 100 to 500 nM in assay [4].

With `[2H]C([2H])([2H])n1c(=O)n([C@@H]2CC[C@@H](NC(=O)OC)C2)c2cc(Nc3cc(C(=O)N4CCOCC4)cc(-c4ccc5c(c4)OCCO5)n3)ncc21` [Example 82, Methyl ((1R,3R)-3-(6-((6-(2,3-dihydrobenzo[b][1,4]dioxin-6-yl)-4-(morpholine-4-carbonyl)pyridin-2-yl)amino)-3-(methyl-d3)-2-oxo-2,3-dihydro-1H-imidazo[4,5-c]pyridin-1-yl)cyclopentyl)carbamate], the IC50 is ≤ 10 nM in assay [1], > 1000 nM in assay [2], > 1000 nM in assay [3] and ≤ 10 nM in assay [4].

As to `COC(=O)N[C@@H]1CC[C@@H](n2c(=O)n(C)c3cnc(Nc4ccnc(NC5CCC(F)(F)C5)n4)cc32)C1` (stereo partly drawn) [Example 83, Methyl ((1R,3R)-3-(6-((2-((3,3-difluorocyclopentyl)amino)pyrimidin-4-yl)amino)-3-methyl-2-oxo-2,3-dihydro-1H-imidazo[4,5-c]pyridin-1-yl)cyclopentyl)carbamate], the IC50 in assay [1] is ≤ 10 nM; in assay [2], > 1000 nM; in assay [3] it was > 1000 nM; in assay [4] it was 10 to 100 nM.

With `COC(=O)N[C@@H]1CC[C@@H](n2c(=O)n(C)c3cnc(Nc4cc(C)nc(N5CCC(F)(F)C5)n4)cc32)C1` [Example 84, Methyl ((1R,3R)-3-(6-((2-(3,3-difluoropyrrolidin-1-yl)-6-methylpyrimidin-4-yl)amino)-3-methyl-2-oxo-2,3-dihydro-1H-imidazo[4,5-c]pyridin-1-yl)cyclopentyl)carbamate], the IC50 in assay [1] is ≤ 10 nM; in assay [2], > 1000 nM; in assay [3], > 1000 nM; in assay [4], ≤ 10 nM.

On to `COC(=O)N[C@@H]1CC[C@@H](n2c(=O)n(C)c3cnc(Nc4ccnc(NC5CCOCC5)n4)cc32)C1` [Example 85, Methyl ((1R,3R)-3-(3-methyl-2-oxo-6-((2-((tetrahydro-2H-pyran-4-yl)amino)pyrimidin-4-yl)amino)-2,3-dihydro-1H-imidazo[4,5-c]pyridin-1-yl)cyclopentyl)carbamate], for which the IC50 in assay [1] is 10 to 100 nM; in assay [2], > 1000 nM; in assay [3], > 1000 nM; in assay [4], 10 to 100 nM.

On to `COC(=O)N[C@@H]1CC[C@@H](n2c(=O)n(C)c3cnc(Nc4cccc(C(=O)N5CCCCC5)n4)cc32)C1` [Example 86, Methyl ((1R,3R)-3-(3-methyl-2-oxo-6-((6-(piperidine-1-carbonyl)pyridin-2-yl)amino)-2,3-dihydro-1H-imidazo[4,5-c]pyridin-1-yl)cyclopentyl)carbamate], for which the IC50 in assay [1] is 10 to 100 nM; in assay [2] it was > 1000 nM; in assay [3], > 1000 nM; in assay [4] it was 100 to 500 nM.

For `COC(=O)N[C@@H]1CC[C@@H](n2c(=O)n(C)c3cnc(Nc4cccc(C(=O)NC5CCCCC5)n4)cc32)C1` [Example 87, Methyl ((1R,3R)-3-(6-((6-(cyclohexylcarbamoyl)pyridin-2-yl)amino)-3-methyl-2-oxo-2,3-dihydro-1H-imidazo[4,5-c]pyridin-1-yl)cyclopentyl)carbamate], the IC50 in assay [1] was ≤ 10 nM; in assay [2] it was > 1000 nM; in assay [3] it was > 1000 nM; in assay [4] it was 10 to 100 nM.

Consider `[2H]C([2H])([2H])n1c(=O)n([C@@H]2CC[C@@H](NC(=O)OC)C2)c2cc(Nc3ccc4c(n3)c(-c3cnn(C(F)(F)F)c3)cn4CCOC)ncc21` [Example 88, Methyl ((1R,3R)-3-(6-((1-(2-methoxyethyl)-3-(1-(trifluoromethyl)-1H-pyrazol-4-yl)-1H-pyrrolo[3,2-b]pyridin-5-yl)amino)-3-(methyl-d3)-2-oxo-2,3-dihydro-1H-imidazo[4,5-c]pyridin-1-yl)cyclopentyl)carbamate], for which the IC50 was ≤ 10 nM in assay [1], > 1000 nM in assay [2], > 1000 nM in assay [3] and ≤ 10 nM in assay [4].

Regarding `[2H]C([2H])([2H])n1c(=O)n([C@@H]2CC[C@@H](NC(=O)OC)C2)c2cc(Nc3cc(-c4cnccc4C(F)(F)F)c4c(n3)n(-c3cnn(C(F)F)c3)c(=O)n4C)ncc21` [Example 89, Methyl ((1R,3R)-3-(6-((3-(1-(difluoromethyl)-1H-pyrazol-4-yl)-1-methyl-2-oxo-7-(4-(trifluoromethyl)pyridin-3-yl)-2,3-dihydro-1H-imidazo[4,5-b]pyridin-5-yl)amino)-3-(methyl-d3)-2-oxo-2,3-dihydro-1H-imidazo[4,5-c]pyridin-1-yl)cyclopentyl)carbamate], the IC50 was ≤ 10 nM in assay [1], > 1000 nM in assay [2], > 1000 nM in assay [3] and ≤ 10 nM in assay [4].
